In patent US20080311657A1, “Killing Human Lymphoma and Leukemia Cancer Cells and Tcr-Activated Normal Human Cells By Dopamine D1r Agonists” (priority 2005, published 2008):
Where “and” joins values, the source holds several entries; their conditions need not be identical. Equal entries are not always repeated.

Assays:
[1] = test system: Human T-Cell Lymphoma (HuT-78); assay: Cell death by LDH release (CytoTox 96); type: cell-based
Protocol: (§1) Cell viability was tested afterwards.
(§2) Tables 3 and 4 show results of experiments designed primarily for studying the kinetics of the effect (herein fenoldopam hydrobromide was tested only at a concentration range of 10^−4 M-10^−6 M), and indicate that already after 1 minute of fenoldopam hydrobromide addition, there is an increased LDH. Yet, the extent of death increased gradually with time (10, 30 and 60 minutes), and after 1 hour the cancer cells released dramatic levels of LDH, indicating massive cell death.

[2] = test system: Human Chronic Myeloid Leukemia (CML, K-562); assay: Cell death by LDH release (CytoTox 96); type: cell-based
Protocol: as §1, §2

D2-like receptors = details: cited from earlier work
[3] = test system: Human Burkitt's B-Cell Lymphoma (Daudi); assay: Cell death by LDH release (CytoTox 96); type: cell-based; details: 1 hour
Protocol: as §1

α2-adrenoceptors = details: cited from earlier work
5HT1 receptors = details: cited from earlier work
5HT2 receptors = details: cited from earlier work
β adrenoceptors = details: cited from earlier work
α1 adrenoceptors = details: cited from earlier work
muscarinic receptors = details: cited from earlier work

In the case of `Oc1ccc(C2CNCCc3c2cc(O)c(O)c3Cl)cc1` (stereo not shown) [Fenoldopam], the “Release of LDH (OD), Average OD” value ([1]; Fenoldopam 10^−4M 1 Min) is reported as 0.8135 OD, the “Release of LDH (OD), OD Duplicates” value ([1]; Fenoldopam 10^−4M 1 Min) is reported as 0.786 OD and 0.841 OD and the “Release of LDH (OD), Average OD” value ([1]; Fenoldopam 10^−4M 10 Min) is reported as 1.4355 OD. The “Release of LDH (OD), Average OD” value ([1]; Fenoldopam 10^−4M 30 Min) was 3.087 OD, the “Release of LDH (OD), OD Duplicates” value ([1]; Fenoldopam 10^−4M 30 Min) was 3.015 OD and 3.159 OD and the “Release of LDH (OD), Average OD” value ([1]; Fenoldopam 10^−4M 60 Min) was 2.8775 OD. For the same compound, the “Release of LDH (OD), OD Duplicates” value ([1]; Fenoldopam 10^−4M 60 Min) was 2.688 OD and 3.067 OD, the “Release of LDH (OD), Average OD” value ([1]; Fenoldopam 10^−5M 60 Min) was 2.9465 OD and the “Release of LDH (OD), OD Duplicates” value ([1]; Fenoldopam 10^−5M 60 Min) was 2.907 OD and 3.022 OD. For the same compound, the “Release of LDH (OD), Average OD” value ([1]; Fenoldopam 10^−6M 60 Min) was 0.7625 OD, the “Release of LDH (OD), OD Duplicates” value ([1]; Fenoldopam 10^−6M 60 Min) was 0.759 OD and 0.766 OD and the “Release of LDH (OD), Average OD” value ([2]; Fenoldopam 10^−4M 1 Min) was 1.081 OD. For the same compound, the “Release of LDH (OD), OD Duplicates” value ([2]; Fenoldopam 10^−4M 1 Min) was 1.081 OD, the “Release of LDH (OD), Average OD” value ([2]; Fenoldopam 10^−4M 10 Min) was 0.863 OD and the “Release of LDH (OD), OD Duplicates” value ([2]; Fenoldopam 10^−4M 10 Min) was 0.868 OD and 0.858 OD. For the same compound, the “Release of LDH (OD), Average OD” value ([2]; Fenoldopam 10^−4M 30 Min) was 2.7755 OD, the “Release of LDH (OD), OD Duplicates” value ([2]; Fenoldopam 10^−4M 30 Min) was 2.737 OD and 2.814 OD and the “Release of LDH (OD), Average OD” value ([2]; Fenoldopam 10^−4M 60 Min) was 2.27 OD. For the same compound, the “Release of LDH (OD), OD Duplicates” value ([2]; Fenoldopam 10^−4M 60 Min) was 2.733 OD and 1.807 OD, the “Release of LDH (OD), Average OD” value ([2]; Fenoldopam 10^−5M 60 Min) was 2.9645 OD and the “Release of LDH (OD), OD Duplicates” value ([2]; Fenoldopam 10^−5M 60 Min) was 2.907 OD and 3.022 OD. For the same compound, the “Release of LDH (OD), Average OD” value ([2]; Fenoldopam 10^−6M 60 Min) was 0.7625 OD, the “Release of LDH (OD), OD Duplicates” value ([2]; Fenoldopam 10^−6M 60 Min) was 0.759 OD and 0.766 OD and the “Affinity, in words” value (D2-like receptors) was “no significant affinity”. For the same compound, the “LDH Release (OD), Average” value ([3]; Fenoldopam 10^−4M) was 0.9595 OD, the “LDH Release (OD), OD Duplicates” value ([3]; Fenoldopam 10^−4M) was 0.961 OD and 0.958 OD and the “LDH Release (OD), Average” value ([3]; Fenoldopam 10^−5M) was 1.0025 OD. For the same compound, the “LDH Release (OD), OD Duplicates” value ([3]; Fenoldopam 10^−5M) was 0.99 OD and 1.015 OD, the “LDH Release (OD), Average” value ([3]; Fenoldopam 10^−6M) was 0.526 OD and the “LDH Release (OD), OD Duplicates” value ([3]; Fenoldopam 10^−6M) was 0.525 OD and 0.527 OD. The “LDH Release (OD), Average” value ([3]; Fenoldopam 10^−7M) was 0.5365 OD, the “LDH Release (OD), OD Duplicates” value ([3]; Fenoldopam 10^−7M) was 0.55 OD and 0.523 OD and the “LDH Release (OD), Average” value ([3]; Fenoldopam 10^−8M) was 1.339 OD. The “LDH Release (OD), OD Duplicates” value ([3]; Fenoldopam 10^−8M) was 1.316 OD and 1.362 OD, the “LDH Release (OD), Average” value ([3]; Fenoldopam 10^−9M) was 0.899 OD and the “LDH Release (OD), OD Duplicates” value ([3]; Fenoldopam 10^−9M) was 0.903 OD and 0.895 OD. The “Concentration of maximal killing” value ([3]; LDH release, Table 2) was 10^−8 M, the “Affinity, in words” value (α2-adrenoceptors) was “moderate affinity” and the “Affinity, in words” value (5HT1 receptors) was “no significant affinity”. The “Affinity, in words” value (5HT2 receptors) was “no significant affinity”, the “Affinity, in words” value (β adrenoceptors) was “no significant affinity” and the “Affinity, in words” value (α1 adrenoceptors) was “no significant affinity”. The “Affinity, in words” value (muscarinic receptors) was “no significant affinity”.
